# Patent publication US10428060B2, “PI-kinase inhibitors with anti-infective activity” (The Board of Trustees of the Leland Stanford Junior …, priority 2011, dated 2019)
# “Also recorded” adds a separate entry of the source.
# Key:
# [1] = target: PI3KC2B (Homo sapiens, UniProt O00750); experiment: PI3KC2B kinase assay; type: biochemical
# Protocol: (§1) PI-kinase assay: Compounds are tested in C.1.1. PI kinase assays as described by Shokat et al., “A membrane capture assay for lipid kinase activity.” Nat. Protoc. 2007; 2(10):2459-66.
# [2] = target: T1, PI3K p110g (Homo sapiens, UniProt P48736); experiment: PI3K p110g kinase assay; type: biochemical
# T1 construct: purchased Millipore
# Protocol: (§2) In the assays described here, p110α-p85 complex and p110γ were acquired from Millipore. Assays were performed with Lα-phosphatidylinositol (Avanti) as described in Knight et al. Nat Protoc. 2007; 2 (10):2459-66. Inhibitor series were prepared 10% DMSO as 5× stocks for the assay. Assays of HsVps34 were performed as described in Knight et al, except that the final assay buffer composition used was changed to 20 mM HEPES 7.5, 100 mM NaCl, 3 mM MgCl, 1 mg/mL PI and 44 nM hvps34 was used in the assay. […] COS-7 cells were cultured in 10 cm dishes and transfected at 70% confluence with 10 μg of plasmid DNA (HA-tagged bovine PI4KIIIβ, HA-tagged human PI4KIIIα) using Lipofectamine 2000 and 5 ml Opti-MEM following the manufacturer's instructions. After 5 hours the transfection medium was replaced with 10 ml complete DMEM. 36 hrs post transfection, cells were washed once with 5 ml PBS (pH 7.4) and lysed in 1 ml of lysis buffer (1) on ice. Lysates were collected by scraping and after 15 min they were centrifuged at 13,000 rpm for 10 min. To the lysates was added 200 μl of protein G Sepharose 4 fast flow beads that were prewashed with PBS and lysis buffer and 2 μg of anti-HA antibody. The tubes were then incubated overnight at 4 degrees C. in a tube rotator. The Sepharose beads in the lysate were washed twice with 150 mM NaCl in RIPA buffer, twice with RIPA buffer and once with kinase buffer (50 mM Tris/HCl, pH 7.5, 20 mM MgCl2, 1 mM EGTA, 1 mM PtdIns, 0.4% Triton X-100, 0.5 mg/mL BSA) and finally the beads were resuspended in 200 μL kinase buffer. Kinase reactions were run in a mixture of 45 μL of PI buffer (1 mM PI in kinase buffer), 10 μL of immunoprecipitated beads, 2 µL of inhibitors (dissolved and diluted in DMSO) or DMSO and 5 μL of [γ-^32P]-ATP (1 mM and 2 μCi/tube). The immunoprecipitates in PI buffer were pre-incubated with the drugs for 20 min prior the initiation of kinase reaction by adding ATP and the reactions were carried out for 30 min in 15 ml polypropolyne tubes. Reactions were terminated by addition of 3 ml of CHCl3:CH3OH:HCl (200:100:0.75) followed by 0.6 ml of 0.6N HCl to induce phase separation. The mixtures were vortexed, centrifuged at 2000 rpm for 2 min and the upper phase was discarded. To the lower phase was added 1.5 ml of CHCl3:CH3OH:0.6N HCl (3:48:47) and the mixture vortexed and centrifuged at 2000 rpm for 2 min. The lower phase was then transferred to counting vials and evaporated. Samples were counted in a scintillation beta counter after adding 5 ml of Instafluor (Perkin-Elmer).
# as §1
# [3] = system: PI(4)P and PI(4,5)P2 pools in Huh7.5 cells; experiment: Immunofluorescence of intracellular PI-4 and PIP2 pools in Huh7.5 cells; type: cell-based
# Protocol: To further confirm its mechanism of action the effect of (1) on PI-4 levels was determined in cells using immunofluorescence to monitor the intracellular localized pools of PI-4. The effect of (1) on intracellular pools of PIP2 was tested, which were predicted to be similarly sensitive to inhibition using (1). […] Uninfected Huh7.5 cells or HCV-infected Huh7.5 cells were used.
# [4] = system: HCV genotype 2a; experiment: microbe, parasite or virus in culture; type: cell-based; conditions: Hepatitis C virus, Huh7.5, read-out: HCV2a EC50
# [5] = target: T2, PI4KIIIB (Bos taurus, UniProt O02810); experiment: PI4KIIIB kinase assay; type: biochemical, bovine
# T2 construct: made in house; host or cells: COS-7 cells, transient transfection, anti-HA immunoprecipitate on protein G Sepharose beads
# Protocol: as §2, with “2007; 2 (10):2459-66.” left out, “for” for “for the assay. Assays of HsVps34 were performed as described in Knight et al, except that the final assay buffer composition used was changed to 20 mM HEPES 7.5, 100 mM NaCl, 3 mM MgCl, 1 mg/mL PI and 44 nM hvps34 was used in”, “Lysates were collected by scraping and after 15 min they were centrifuged at 13,000 rpm for 10 min.” left out, “The Sepharose beads in the lysate were washed twice with 150 mM NaCl in RIPA buffer, twice with RIPA buffer and once with kinase buffer (50 mM Tris/HCl, pH 7.5, 20 mM MgCl2, 1 mM EGTA, 1 mM PtdIns, 0.4% Triton X-100, 0.5 mg/mL BSA) and finally the beads were resuspended in 200 μL kinase buffer.” left out
# PI-kinase assay: Compounds are tested in C.1.1. PI kinase assays as described by Shokat et al., “A membrane capture assay for lipid kinase activity.” Nat. Protoc.
# [6] = system: HRV; experiment: Rhinovirus antiviral assay; type: cell-based; conditions: Human rhinovirus sp.
# [7] = target: T3, PI3K p110a (Homo sapiens, UniProt P42336); experiment: PI3K p110a kinase assay; type: biochemical
# T3 construct: purchased Millipore
# Protocol: In the assays described here, p110α-p85 complex and p110γ were acquired from Millipore. Assays were performed with Lα-phosphatidylinositol (Avanti) as described in Knight et al. Nat Protoc. […] Inhibitor series were prepared 10% DMSO as 5× stocks for the assay. […] COS-7 cells were cultured in 10 cm dishes and transfected at 70% confluence with 10 μg of plasmid DNA (HA-tagged bovine PI4KIIIβ, HA-tagged human PI4KIIIα) using Lipofectamine 2000 and 5 ml Opti-MEM following the manufacturer's instructions. After 5 hours the transfection medium was replaced with 10 ml complete DMEM. 36 hrs post transfection, cells were washed once with 5 ml PBS (pH 7.4) and lysed in 1 ml of lysis buffer (1) on ice. […] To the lysates was added 200 μl of protein G Sepharose 4 fast flow beads that were prewashed with PBS and lysis buffer and 2 μg of anti-HA antibody. The tubes were then incubated overnight at 4 degrees C. in a tube rotator. […] Kinase reactions were run in a mixture of 45 μL of PI buffer (1 mM PI in kinase buffer), 10 μL of immunoprecipitated beads, 2 µL of inhibitors (dissolved and diluted in DMSO) or DMSO and 5 μL of [γ-^32P]-ATP (1 mM and 2 μCi/tube). […] Samples were counted in a scintillation beta counter after adding 5 ml of Instafluor (Perkin-Elmer). […]
# [8] = target: T4, PI4KIIIA (Homo sapiens, UniProt P42356); experiment: PI4KIIIA kinase assay; type: biochemical
# T4 construct: made in house; host or cells: COS-7 cells, transient transfection, anti-HA immunoprecipitate on protein G Sepharose beads
# Protocol: as §2, with “Reactions were terminated by addition of 3 ml of CHCl3:CH3OH:HCl (200:100:0.75) followed by 0.6 ml of 0.6N HCl to induce phase separation. The mixtures were vortexed, centrifuged at 2000 rpm for 2 min and the upper phase was discarded. To the lower phase was added 1.5 ml of CHCl3:CH3OH:0.6N HCl (3:48:47) and the mixture vortexed and centrifuged at 2000 rpm for 2 min. The lower phase was then transferred to counting vials and evaporated.” left out, “(Perkin-Elmer). […]” for “(Perkin-Elmer).”
# [9] = immunofluorescence, 250 nM, 500 nM or 1 uM, uninfected or HCV-infected Huh7.5 cells
# T1 sequence (P48736 whole entry): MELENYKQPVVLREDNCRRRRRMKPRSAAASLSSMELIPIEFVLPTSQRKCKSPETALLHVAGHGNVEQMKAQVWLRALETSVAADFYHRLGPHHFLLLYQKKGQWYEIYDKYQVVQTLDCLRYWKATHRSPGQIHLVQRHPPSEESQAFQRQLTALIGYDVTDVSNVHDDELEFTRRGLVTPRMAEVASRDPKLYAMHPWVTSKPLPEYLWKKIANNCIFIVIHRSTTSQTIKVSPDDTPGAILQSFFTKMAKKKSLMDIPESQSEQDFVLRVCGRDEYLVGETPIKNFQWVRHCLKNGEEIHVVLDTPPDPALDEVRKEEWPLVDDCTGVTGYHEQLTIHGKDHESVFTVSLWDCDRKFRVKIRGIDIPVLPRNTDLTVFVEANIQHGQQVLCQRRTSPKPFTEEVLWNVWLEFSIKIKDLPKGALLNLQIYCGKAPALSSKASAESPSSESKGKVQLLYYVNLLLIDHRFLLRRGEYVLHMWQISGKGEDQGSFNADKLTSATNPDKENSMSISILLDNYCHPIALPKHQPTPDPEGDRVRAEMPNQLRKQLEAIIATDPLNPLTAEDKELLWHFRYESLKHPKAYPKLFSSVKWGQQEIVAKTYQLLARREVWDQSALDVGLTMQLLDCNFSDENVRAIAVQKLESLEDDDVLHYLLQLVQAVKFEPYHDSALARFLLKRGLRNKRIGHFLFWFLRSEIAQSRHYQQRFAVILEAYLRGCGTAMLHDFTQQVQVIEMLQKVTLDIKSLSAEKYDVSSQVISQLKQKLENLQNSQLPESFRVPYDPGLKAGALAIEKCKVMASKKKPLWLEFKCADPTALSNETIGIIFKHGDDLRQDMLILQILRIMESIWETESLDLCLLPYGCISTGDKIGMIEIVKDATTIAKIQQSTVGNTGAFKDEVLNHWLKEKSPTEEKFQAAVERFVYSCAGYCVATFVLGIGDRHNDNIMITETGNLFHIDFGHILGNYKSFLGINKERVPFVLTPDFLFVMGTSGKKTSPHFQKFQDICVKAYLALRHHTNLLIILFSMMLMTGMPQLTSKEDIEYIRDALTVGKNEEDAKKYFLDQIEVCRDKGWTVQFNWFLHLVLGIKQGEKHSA
# PI3KC2B, sequence (O00750 whole entry): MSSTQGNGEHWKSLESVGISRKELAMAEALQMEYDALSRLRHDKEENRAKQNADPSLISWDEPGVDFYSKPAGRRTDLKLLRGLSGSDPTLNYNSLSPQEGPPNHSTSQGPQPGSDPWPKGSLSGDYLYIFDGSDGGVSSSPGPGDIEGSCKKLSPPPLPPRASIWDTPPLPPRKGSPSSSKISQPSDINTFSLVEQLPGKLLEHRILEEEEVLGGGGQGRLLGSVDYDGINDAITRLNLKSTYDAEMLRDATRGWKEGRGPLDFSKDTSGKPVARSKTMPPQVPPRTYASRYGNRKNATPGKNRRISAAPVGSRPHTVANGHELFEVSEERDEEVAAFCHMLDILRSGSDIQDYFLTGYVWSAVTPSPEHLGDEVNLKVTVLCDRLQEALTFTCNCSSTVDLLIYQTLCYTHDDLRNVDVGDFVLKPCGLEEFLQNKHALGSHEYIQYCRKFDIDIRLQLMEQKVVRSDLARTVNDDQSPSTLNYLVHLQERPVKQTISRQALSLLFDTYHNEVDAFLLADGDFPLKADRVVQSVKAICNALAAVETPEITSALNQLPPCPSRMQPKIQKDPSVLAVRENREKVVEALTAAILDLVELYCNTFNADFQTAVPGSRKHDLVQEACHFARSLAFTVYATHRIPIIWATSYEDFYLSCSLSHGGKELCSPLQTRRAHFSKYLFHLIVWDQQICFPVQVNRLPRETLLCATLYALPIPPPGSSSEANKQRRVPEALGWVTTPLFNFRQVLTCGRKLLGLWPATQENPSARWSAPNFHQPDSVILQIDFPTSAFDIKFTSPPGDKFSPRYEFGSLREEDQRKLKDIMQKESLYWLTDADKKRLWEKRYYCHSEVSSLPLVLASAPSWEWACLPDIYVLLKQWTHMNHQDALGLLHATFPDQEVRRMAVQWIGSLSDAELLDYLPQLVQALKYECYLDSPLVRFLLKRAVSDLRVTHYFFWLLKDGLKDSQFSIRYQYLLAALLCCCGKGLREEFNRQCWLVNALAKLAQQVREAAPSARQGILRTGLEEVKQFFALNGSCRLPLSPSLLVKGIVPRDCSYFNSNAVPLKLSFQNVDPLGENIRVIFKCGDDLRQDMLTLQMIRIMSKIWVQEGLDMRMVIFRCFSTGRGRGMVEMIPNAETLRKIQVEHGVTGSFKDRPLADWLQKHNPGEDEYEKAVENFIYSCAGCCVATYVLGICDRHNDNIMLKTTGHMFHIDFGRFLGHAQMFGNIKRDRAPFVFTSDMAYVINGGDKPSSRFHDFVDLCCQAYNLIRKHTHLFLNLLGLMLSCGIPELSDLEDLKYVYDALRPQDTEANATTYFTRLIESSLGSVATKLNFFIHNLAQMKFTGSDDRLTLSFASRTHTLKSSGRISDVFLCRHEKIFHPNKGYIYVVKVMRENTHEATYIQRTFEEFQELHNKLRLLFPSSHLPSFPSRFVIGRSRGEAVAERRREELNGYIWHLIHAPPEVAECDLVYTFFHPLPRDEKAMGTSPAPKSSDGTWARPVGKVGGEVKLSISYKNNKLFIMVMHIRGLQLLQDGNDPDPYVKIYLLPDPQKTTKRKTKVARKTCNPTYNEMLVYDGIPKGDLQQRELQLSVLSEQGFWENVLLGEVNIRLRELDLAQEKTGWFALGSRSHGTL
# T2 sequence (O02810 whole entry): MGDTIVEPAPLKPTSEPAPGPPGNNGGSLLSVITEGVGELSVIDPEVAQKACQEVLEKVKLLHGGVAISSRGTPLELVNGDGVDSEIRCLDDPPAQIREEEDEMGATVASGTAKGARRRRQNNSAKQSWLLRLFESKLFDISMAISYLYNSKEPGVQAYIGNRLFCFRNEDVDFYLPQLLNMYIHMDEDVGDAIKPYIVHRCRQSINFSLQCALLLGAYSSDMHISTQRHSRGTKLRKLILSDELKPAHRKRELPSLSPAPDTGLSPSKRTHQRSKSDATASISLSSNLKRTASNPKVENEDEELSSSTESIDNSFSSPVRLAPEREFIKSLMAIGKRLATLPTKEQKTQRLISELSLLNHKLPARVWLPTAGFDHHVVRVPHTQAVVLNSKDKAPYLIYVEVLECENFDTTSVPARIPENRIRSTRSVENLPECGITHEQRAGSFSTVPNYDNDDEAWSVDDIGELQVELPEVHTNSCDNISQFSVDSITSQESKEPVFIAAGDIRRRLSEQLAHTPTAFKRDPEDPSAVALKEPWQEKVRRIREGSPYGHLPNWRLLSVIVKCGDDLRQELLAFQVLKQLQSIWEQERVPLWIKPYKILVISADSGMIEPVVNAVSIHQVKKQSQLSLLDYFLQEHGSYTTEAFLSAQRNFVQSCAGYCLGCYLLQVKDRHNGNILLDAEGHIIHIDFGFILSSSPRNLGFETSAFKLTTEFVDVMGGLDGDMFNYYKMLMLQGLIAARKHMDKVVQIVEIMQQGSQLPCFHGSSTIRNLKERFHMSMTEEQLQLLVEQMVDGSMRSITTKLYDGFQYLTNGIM
SMILES,IC50 [1],IC50 [2],EC50 [4],EC50 [6],further results
"COc1ccc(-c2sc(N[C@H](C)C3CCCCC3)nc2C)cc1S(=O)(=O)N[C@H]1CC[C@H](O)CC1 [Compound S-193, 5-[2-[[(1R)-1-cyclohexylethyl]amino]-4-methyl-thiazol-5-yl]-N-(4-hydroxycyclohexyl)-2-methoxy-benzenesulfonamide]",> 10 µM,,,,
"COc1ccc(-c2sc(NC(=O)CCC3CCCC3)nc2C)cc1S(=O)(=O)NC1CCNCC1 [Compound S-160, 3-cyclopentyl-N-[5-[4-methoxy-3-(4-piperidylsulfamoyl)phenyl]-4-methyl-thiazol-2-yl]propanamide]",> 10 µM,> 10 µM,,,
COc1ccc(-c2sc(NC(=O)C3CCCC3)nc2C)cc1S(=O)(=O)Nc1ccc(O)cc1 [Compound 1],,,,,"Effect on the ER (calnexin co-staining) ([3]; control for non-specific effects): absence of any detectable effects on the ER; Effect on intracellular PI-4 (PI(4)P) levels [3, 9]: dose-dependent decrease; also recorded: decreases; Effect on intracellular PIP2 (PI(4,5)P2) levels [3, 9]: dose-dependent decrease; also recorded: decreases"
"COc1ccc(-c2sc(NCC3CCCCC3)nc2C)cc1S(=O)(=O)NC1CCCNC1 (centres unmarked) [Compound S-115, 5-[2-(cyclohexylmethylamino)-4-methyl-thiazol-5-yl]-2-methoxy-N-(3-piperidyl)benzenesulfonamide]",,,0.1 to 1 µM,< 0.001 µM,IC50 [5]: < 0.1 µM
"COc1ccc(-c2sc(N[C@H](C)C3CCCCC3)nc2C)cc1S(=O)(=O)NC1CCCNC1 (stereo partly drawn) [Compound S-148, 5-[2-[[(1R)-1-cyclohexylethyl]amino]-4-methyl-thiazol-5-yl]-2-methoxy-N-(3-piperidyl)benzenesulfonamide]",,> 10 µM,,,IC50 [5]: < 0.1 µM; IC50 [7]: > 10 µM; IC50 [8]: 0.1 to 1 µM
COc1ncc(-c2sc(NC(=O)CC3CCOCC3)nc2C)cc1S(=O)(=O)Nc1ccc(F)cc1F [Compound S-260],,> 10 µM,0.1 to 1 µM,1 to 10 µM,
"COc1ccc(-c2sc(NC(=O)CC3CCCC3)nc2C)cc1S(=O)(=O)Nc1ccc(O)cc1 [Compound S-1, 2-cyclopentyl-N-[5-[3-[(4-hydroxyphenyl)sulfamoyl]-4-methoxy-phenyl]-4-methyl-thiazol-2-yl]acetamide]",> 10 µM,> 10 µM,0.001 to 0.1 µM,< 0.001 µM,

# Second part, led by results:
IC50 [1],IC50 [2],SMILES,EC50 [4],EC50 [6],further results
> 10 µM,> 10 µM,"COc1ccc(-c2sc(NC(=O)CC3CCOCC3)nc2C)cc1S(=O)(=O)Nc1ccc(O)cc1C [Compound S-231, N-[5-[3-[(4-hydroxy-2-methyl-phenyl)sulfamoyl]-4-methoxy-phenyl]-4-methyl-thiazol-2-yl]-2-tetrahydropyran-4-yl-acetamide]",,,
> 10 µM,> 10 µM,"COc1ccc(-c2sc(NC(C)(C)C)nc2C)cc1S(=O)(=O)N[C@H]1CC[C@H](O)CC1 [Compound S-216, 5-[2-(tert-butylamino)-4-methyl-thiazol-5-yl]-N-(4-hydroxycyclohexyl)-2-methoxy-benzenesulfonamide]",,,
> 10 µM,> 10 µM,"COc1ccc(-c2sc(NC(C)C)nc2C)cc1S(=O)(=O)N[C@H]1CC[C@H](O)CC1 [Compound S-215, N-(4-hydroxycyclohexyl)-5-[2-(isopropylamino)-4-methyl-thiazol-5-yl]-2-methoxy-benzenesulfonamide]",,,
